In a melting point compilation (Tetko et al.; mined from patent text by program, amines drawn as free bases though some values may be those of a salt):

Row | SMILES | melting point [°C]
1 | CCC(=O)c1ccc(C(CC(=O)Nc2cc(C(N)=O)ccc2C(C)(C)C)CC(C)C)c(OC)c1 (stereo not given) | 186 to 187
2 | COC1=C(N=O)C(=O)NC1=Cc1ccccc1 | 172
3 | CCOC(=O)c1oc2c(C(=O)NCCCN3CCN(c4cc(Cl)ccc4OC)CC3)cccc2c(=O)c1C | 107 to 115
4 | Cc1ncsc1C(=O)Nc1ccc(-n2nc(C(F)(F)F)c(Cl)c2C2CC2)cc1 | 161 to 164
5 | CCCC(Sc1cc(C(C)(C)C)c(O)c(C(C)(C)C)c1)C(=O)Nc1c(C)cccc1C (stereo not given) | 137 to 140
6 | O=C(O)CCCCCCCCCCCOC(=O)OCC(Cl)(Cl)Cl | 44.6 to 46.4
7 | COc1ccc(Nc2nc(Cl)nc(OCC3CCCCC3)n2)cc1F | 98
8 | CCCCC1=NC(=NOC(=O)NC)SC1(C)C | 128 to 130
9 | COc1ccccc1C1(N)C(=O)Nc2ccc(Cl)cc21 (stereo not given) | 220 to 224
10 | COc1ccc(C(=O)NCCCCCCCNC(=O)c2ccc(OC)c(Cl)c2)cc1Cl | 132 to 133
11 | COc1cc(Nc2c(C#N)cnc3cc(C)sc23)c(Cl)cc1Cl | 213 to 214
12 | COc1cc(Nc2nccc(-c3ccsc3)n2)cc(OC)c1OC | 163
13 | CC(=O)ON1C(C)(C)CC(OC(=O)CCCCCCCCC(=O)OC2CC(C)(C)N(OC(C)=O)C(C)(C)C2)CC1(C)C | 81 to 94
14 | CCN(CC)C(=O)COc1ccc(CCC(=O)NS(=O)(=O)CCC(C)C)c(Oc2ncc(C(F)(F)F)cc2Cl)c1 | 123 to 125
15 | CC(C)C(=O)N[C@@H](CSC(=O)C(C)(C)C)C(=O)NCCSC(=O)c1ccccc1 | 112 to 114
16 | CC(C)NC(=S)N1CCc2nc(N)sc2C1 | 179 to 180
17 | CC(=O)C=Cc1ccc2c(c1)OCCO2 | 80
18 | CSC(=S)NCc1c[nH]c2ccccc12 | 132 to 133
19 | CC1(C)C(N)CN1c1nc2c(cc1F)c(=O)c(C(=O)O)cn2C1CC1 (stereo not given) | 190 to 195
20 | CNC(=NC#N)NCCSCc1csc(NC(=S)NCC(F)(F)F)n1 | 157 to 158
21 | CCOC(=O)c1c2ccc(CC(=O)NOCC(=O)N3CCCC3)ccc-2c(C(=O)OCC)c1N | 168 to 170

Row | SMILES | melting point [°C]
22 | COc1cc2nc(SCc3cc(N(C)C)c(Cl)cn3)[nH]c2cc1OC | 116 to 117
23 | O=C(/C=C/c1cccc(Br)c1)NC1CC1 | 110 to 111
24 | CC(C)(O)COc1ccc(/C=C/C(=O)O)c(Oc2ncc(C(F)(F)F)cc2Cl)c1 | 126 to 128
25 | Cn1cc(-c2nnn[nH]2)c(=O)c2ccc(F)cc21 | 290 to 292
26 | CC(C)c1cc(O)c(O)c(C(=O)O)c1 | 151 to 152
27 | COC(=O)[C@H](C)N(C(=O)[C@H](CC(C)C)NC(=O)OC(C)(C)C)c1ccc(F)cc1 | 121 to 122
28 | COc1ccc(-c2c3c(cc4ccc(OC)cc24)C(=O)NC3=O)cc1 | 290 to 292
29 | N#CC1CN1C(=O)c1ccccn1 (stereo not given) | 124 to 127
30 | CCOC(=O)c1ccc(/C=C/C(=O)O)cn1 | 201 to 202
31 | Cn1cncc1C(N)(c1ccc(CN)cc1)c1ccc2c(c1)c(-c1cccc(Cl)c1)cc(=O)n2C (stereo not given) | 150
32 | Cc1ccc(Nc2ccccc2[N+](=O)[O-])c(C#N)c1 | 135 to 139
33 | Cc1oc(-c2cccc([N+](=O)[O-])c2)nc1CCl | 111 to 113
34 | OC(Cc1nc[nH]n1)(Cc1nc[nH]n1)c1ccc(Cl)cc1Cl | 182 to 185
35 | CCC(=O)NC(Cl)C(Cl)(Cl)CCl (stereo not given) | 167
36 | CC(C)N(C(C)C)C(C)CN1C(=O)C(=O)c2ccccc21 (stereo not given) | 111 to 112
37 | CCC1CC2=CC(=O)CCC2C2CCC3(C)C(O)CCC3C12 (stereo not given) | 142 to 144
38 | CCc1c(C(=O)c2cc(C)cc(C)c2)n(CC=CC(=O)OC(C)C)c(=O)[nH]c1=O | 175 to 176
39 | COc1ccc(C(O)c2cccnc2)cc1OC (stereo not given) | 76 to 78
40 | NCC1Cc2cc(F)cc(-c3ccc(Cl)cc3Cl)c2O1 (stereo not given) | 107 to 109
41 | C=CCc1c(OC)cc(Cc2cnc(N)nc2N)cc1OC | 185 to 187
42 | CCC(=S)NC[C@H]1CN(c2ccc(N3CCN(C#N)CC3)c(F)c2)C(=O)O1 | 182 to 184

Row | SMILES | melting point [°C]
43 | Cc1cc([N+](=O)[O-])c2[nH]cc(CO)c(=O)c2c1 | > 240
44 | COC(=O)CCCCCNC(=O)c1csc(NC(=O)NCc2ccccc2)n1 | 140
45 | Nc1ccc(N=Nc2ccc(N)c(C(F)(F)F)c2)c(C(F)(F)F)c1 | 136
46 | CN(c1ccc(Cl)cc1)S(=O)(=O)c1cccc(C(=O)Nc2ccc(Br)cc2F)c1 | 126 to 127
47 | Cc1cn(C)cc1C(=O)O | 166 to 168
48 | CCOC(=O)C1COc2c(OC)ccc([N+](=O)[O-])c2C1 (stereo not given) | 66 to 68
49 | COc1ccc(-c2cc(=O)n(C)c(=O)n2C)cc1OC | 118 to 120
50 | O=C(NNC(=O)c1ccncc1)Nc1cccc2c1C(=O)c1c-2n[nH]c1-c1ccc(N2CCNCC2)cc1 | 232
51 | COc1ccc(Nc2nc(Cl)nc(Nc3ccc(OC)c(F)c3)n2)cc1F | 194
52 | CC(C)(C)OC(=O)NC(C)(CO)C(=O)OC(C)(C)C (stereo not given) | 44 to 45
53 | CCOC(=O)C(=Cc1ccc(N(C)C)cc1[N+](=O)[O-])C(=O)OCC | 101 to 102
54 | CN(CC(=O)NC1(c2ccccc2Cl)C(=O)Nc2ccc(Cl)cc21)CC(=O)OC(C)(C)C (stereo not given) | 200
55 | O=C(CN(C(=O)c1cccc(C(F)(F)F)c1)c1ccccc1)Nc1ccc(Cl)c(Cl)c1 | 130 to 132
56 | CCOC(=O)C1=C(COCC(C)N=[N+]=[N-])NC(C)=C(C(=O)OC)C1 (stereo not given) | 115
57 | O=C(O)/C=C1\CCc2c(Cl)cc(F)cc21 | 229 to 230
58 | C=CCNc1nc(NCC=C)c2scc(-c3ccccc3)c2n1 | 98 to 100
59 | Oc1nc2ccc3nccnc3c2nc1O | > 300
60 | CC(C)(C)OC(=O)N1CCC2(CC1)CC(c1ccc(CNS(C)(=O)=O)c(F)c1)=NO2 | 178 to 182
61 | O=C(C1COc2ccc([N+](=O)[O-])cc21)N1CCCCC1 (stereo not given) | 108 to 114
62 | Nc1nc(Nc2ccccc2)sc1C(=O)c1cccs1 | 84 to 85
63 | CCOC(=O)CCCn1c(=O)c2sc(N)nc2n(C)c1=O | 170 to 171

The next lines start with the values.

Row | melting point [°C] | SMILES
64 | 156 to 158 | COCCOCCN1C(=O)C2(COc3cc4c(cc32)OCCO4)c2c1ccc1ncsc21 (stereo not given)
65 | 89 to 92 | CS(=O)(=O)N(Cc1ccccc1)c1ccc(C2CO2)cc1 (stereo not given)
66 | > 290 | Cc1ccc2c(c1)N(CC(=O)c1cccs1)C(=O)C(NC(=O)Nc1cccc(C(=O)O)c1)CN2C(=O)c1cccs1 (stereo not given)
67 | 180 to 182 | O=C(O)c1cccc(NC(=O)C(CS)Cc2ccc(F)cc2)c1 (stereo not given)
68 | 235 | O=C(O)COc1ccc(-c2nc3ncccc3[nH]2)c(O)c1
69 | 75 to 79 | COC(=O)NC(=S)Nc1cc(C(=O)c2ccccc2)ccc1NCc1ccccc1
70 | 195 to 200 | O=C(c1ccccc1)c1c(O)c(=O)ccn1CCO
71 | 270 to 271 | CCOC(=O)c1c(CN2CCCC2=O)nc2sc3c(c2c1-c1ccc2c(c1)OCO2)CCN(C(=O)c1ccccc1)C3
72 | 157 to 158 | COc1ccc(-c2cc(C(=O)O)nnc2-c2ccc(OC)cc2)cc1
73 | 148 to 150 | COc1ccc(S(=O)(=O)Nc2cccnc2Nc2ccccc2F)cc1
74 | 135 to 137 | Cc1ccc2c(c1)N(C(=O)CN(C)C)c1ccccc1S(=O)(=O)N2C
75 | 226 to 228 | O=c1c2c(Cc3ccccc3)n[nH]c2c2cccnc2n1-c1cccc(C(F)(F)F)c1
76 | 172 to 175 | CNC(=O)c1ccc(OCC(O)CNC(C)COc2ccc(O)c(C(N)=O)c2)cc1 (stereo not given)
77 | 109 to 111 | Cc1ccc(Sc2ccccc2CN(C)C)c([N+](=O)[O-])c1
78 | 201 to 204 | COC(=O)C1=C(C)NC2=C(C(=O)CN(Cc3ccccc3)C2)C1c1ccccc1C (stereo not given)
79 | 40 to 42 | C[C@@H]1CCCN1CCCOc1ccc(C(=O)Cc2ccccn2)cc1
80 | 143 to 144 | O=C1c2ccc([N+](=O)[O-])cc2C(=O)N1C1CCN(Cc2cccnc2)CC1
81 | 96 to 98 | CS(=O)(=O)Oc1ccc2cc(CO)ccc2c1
82 | 132 to 133 | COc1ccc(C=C2CCc3cc(OCCn4ccnc4)ccc3C2=O)cc1

Row | melting point [°C] | SMILES
83 | 169 to 170 | Cc1nc(-c2cc3cccc(OC[C@@H](O)CN4CCC(c5ccc6ccccc6c5)CC4)c3o2)no1
84 | 125 to 126 | CC(C)(C)OC(=O)NC(C(=O)OCC(=O)c1ccccc1)c1ccc(OCC(=O)c2ccccc2)cc1 (stereo not given)
85 | 275 to 280 | Cc1c(Cc2cccc3ccccc23)c(=O)oc2cc(O)cc(O)c12
86 | 75 to 80 | CN1C(=O)Cc2cnc(N3CCN(C(c4ccccc4)c4ccccc4)CC3)nc21
87 | 123 to 126 | Cc1c(SCCSCc2ccncc2)ccnc1CNc1cnc2ccccc2c1
88 | 143 to 145 | NNC(=O)c1cccc(OCc2csc(-c3ccccc3F)n2)c1
89 | 103 to 106 | CCOC(=O)C(C)n1c(-c2ccc(Cl)cc2)nc2cccnc21 (stereo not given)
90 | 279 to 283 | O=C(CNc1c(C(=O)O)[nH]c2cc(Cl)cc(Cl)c12)c1ccc(Cl)cc1
91 | 226 to 227 | CC(C)CCOc1ccc(-c2c(Cl)c(CN3C(=O)CCC3=O)nc3sc4c(c23)CCNC4)cc1
92 | 142 to 143 | O=C(C(=Cc1ccc(F)cc1)S(=O)(=O)c1ccccc1)c1ccccc1
93 | 214 to 216 | O=C(O)c1cc(-c2ccccc2)ccc1O
94 | 84 to 86 | N#Cc1cccc(Oc2ncccc2OCCCc2ccncc2O)c1
95 | 160 to 162 | COc1ccc(S(=O)(=O)c2ccc(OC)c3ccccc23)cc1
96 | 228 to 230 | N#CCCNC(=O)c1n[nH]cc1NC(=O)c1ccc(-c2ccccc2)o1
97 | > 250 | Nc1nc(N)nc(-c2ccc(S(=O)(=O)c3ccccc3)cc2)n1
98 | 155 to 158 | O=c1c2cc(O)c(O)cc2c2cc(O)c(O)cc2n1CCCc1ccccc1
99 | 140 to 143 | CCCN1NC(c2ccc(C)cc2)C2=C1C(=Cc1ccc(C)cc1)CSC2 (stereo not given)
100 | 131 | CC(C)C(=O)N[C@H]1C[C@@H](c2cc(NC(=O)Cc3cccc4ccccc34)n[nH]2)C1
